Measurements published in patent US20050165047A1, “Crystalline fumarate salts of 1-azabicyclo[2.2.2]oct substituted furo[2,3-c]pyridinyl carboxamide and compositions and preparations thereof” (Pfizer Inc, priority 2002, published 2005).

Experiment: Moisture sorption by DMSG on a controlled atmosphere microbalance
Type: physicochemical
Details: 25° C.
Experimental: The sorption of water by the solid lattice at a given relative humidity (RH) was measured by DMSG on a controlled atmosphere microbalance. Scans were carried out at 25° C. from 36% to 0% RH then ramped to 90% RH, and back down to 0% RH with a step size of 3% RH. A sample size of 8 to 14 mg was used. At each step, the balance was considered equilibrated when the mass change was less than 0.01 mg for five consecutive scans. There were 120 seconds between each scan.
Table 3 provides the moisture sorption data at 25° C. for Crystal Forms Ia and Ib of N-[1-azabicyclo[2.2.2]oct-3-yl]furo[2,3-c]pyridine-5-carboxamide.

## O=C(N[C@H]1CN2CCC1CC2)c1cc2ccoc2cn1 [Crystal Form Ib, N-[(3R)-1-azabicyclo[2.2.2]oct-3-yl]furo[2,3-c]pyridine-5-carboxamide]
RH 0%, 36-0% RH
  % dMass: 0.1164%
RH 0.24%, 36-0% RH
  % dMass: 0.1225%
RH 2.62%, 0-90% RH
  % dMass: 0.1479%
RH 3.16%, 36-0% RH
  % dMass: 0.1628%
RH 5.84%, 0-90% RH
  % dMass: 0.1768%
RH 6.36%, 36-0% RH
  % dMass: 0.1899%
RH 8.98%, 0-90% RH
  % dMass: 0.2048%
RH 9.74%, 36-0% RH
  % dMass: 0.2197%
RH 12.2%, 0-90% RH
  % dMass: 0.2293%
RH 12.78%, 36-0% RH
  % dMass: 0.2451%
RH 15.34%, 0-90% RH
  % dMass: 0.2547%
RH 15.78%, 36-0% RH
  % dMass: 0.2678%
RH 18.46%, 0-90% RH
  % dMass: 0.281%
RH 18.8%, 36-0% RH
  % dMass: 0.2932%
RH 21.42%, 0-90% RH
  % dMass: 0.3037%
RH 21.88%, 36-0% RH
  % dMass: 0.3195%
RH 24.66%, 0-90% RH
  % dMass: 0.3335%
RH 25.1%, 36-0% RH
  % dMass: 0.3466%
RH 27.74%, 0-90% RH
  % dMass: 0.3606%
RH 28.16%, 36-0% RH
  % dMass: 0.3772%
RH 30.82%, 0-90% RH
  % dMass: 0.3921%
RH 33.92%, 0-90% RH
  % dMass: 0.4245%
RH 36.96%, 0-90% RH
  % dMass: 0.4586%
RH 39.9%, 0-90% RH
  % dMass: 0.491%
RH 43.18%, 0-90% RH
  % dMass: 0.5348%
RH 46.14%, 0-90% RH
  % dMass: 0.5768%
RH 49.16%, 0-90% RH
  % dMass: 0.6302%
RH 52.12%, 0-90% RH
  % dMass: 0.6871%
RH 55.1%, 0-90% RH
  % dMass: 0.7501%
RH 58.08%, 0-90% RH
  % dMass: 0.8219%
RH 61.08%, 0-90% RH
  % dMass: 0.9068%
RH 64.04%, 0-90% RH
  % dMass: 1.002%
RH 67.02%, 0-90% RH
  % dMass: 1.124%
RH 68.62%, 90-0% RH
  % dMass: 26.01%
RH 70%, 0-90% RH
  % dMass: 1.281%
RH 71.48%, 90-0% RH
  % dMass: 26.27%
RH 72.9%, 0-90% RH
  % dMass: 1.505%
RH 74.3%, 90-0% RH
  % dMass: 26.58%
RH 75.9%, 0-90% RH
  % dMass: 1.925%
RH 77.1%, 90-0% RH
  % dMass: 26.92%
RH 79.2%, 0-90% RH
  % dMass: 26.93%
RH 79.88%, 90-0% RH
  % dMass: 27.36%
RH 82%, 0-90% RH
  % dMass: 27.4%
RH 82.5%, 90-0% RH
  % dMass: 28%
RH 85.04%, 0-90% RH
  % dMass: 28.18%
RH 85.12%, 90-0% RH
  % dMass: 30.2%
RH 87.82%, 0-90% RH
  % dMass: 30.29%
RH 87.9%, 90-0% RH
  % dMass: 32.21%
RH 90.7%, 0-90% RH
  % dMass: 38.78%
RH 90.7%, 90-0% RH
  % dMass: 38.8%

## O=C(N[C@H]1CN2CCC1CC2)c1cc2ccoc2cn1 [Crystal Form Ia, N-[(3R)-1-azabicyclo[2.2.2]oct-3-yl]furo[2,3-c]pyridine-5-carboxamide]
RH 0%, 0-90% RH
  % dMass: 0.006227%
RH 0%, 36-0% RH
  % dMass: 0.008896%
RH 0.1%, 36-0% RH
  % dMass: 0.01245%
RH 0.36%, 36-0% RH
  % dMass: 0.01156%
RH 1.3%, 0-90% RH
  % dMass: 0.01512%
RH 1.6%, 36-0% RH
  % dMass: 0.02224%
RH 4.3%, 0-90% RH
  % dMass: 0.0258%
RH 4.74%, 36-0% RH
  % dMass: 0.0338%
RH 7.1%, 0-90% RH
  % dMass: 0.03736%
RH 7.98%, 36-0% RH
  % dMass: 0.0427%
RH 10.1%, 0-90% RH
  % dMass: 0.04448%
RH 10.8%, 36-0% RH
  % dMass: 0.04893%
RH 13.14%, 0-90% RH
  % dMass: 0.05249%
RH 13.96%, 36-0% RH
  % dMass: 0.05515%
RH 16.18%, 0-90% RH
  % dMass: 0.05782%
RH 17.1%, 36-0% RH
  % dMass: 0.06227%
RH 19.28%, 0-90% RH
  % dMass: 0.06227%
RH 19.94%, 36-0% RH
  % dMass: 0.07028%
RH 22.56%, 0-90% RH
  % dMass: 0.07295%
RH 23.18%, 36-0% RH
  % dMass: 0.07739%
RH 25.72%, 0-90% RH
  % dMass: 0.07828%
RH 28.68%, 0-90% RH
  % dMass: 0.08362%
RH 31.96%, 0-90% RH
  % dMass: 0.09341%
RH 35.18%, 0-90% RH
  % dMass: 0.1005%
RH 38.16%, 0-90% RH
  % dMass: 0.1076%
RH 41.24%, 0-90% RH
  % dMass: 0.1139%
RH 44.36%, 0-90% RH
  % dMass: 0.1165%
RH 47.56%, 0-90% RH
  % dMass: 0.1237%
RH 50.7%, 0-90% RH
  % dMass: 0.1334%
RH 53.86%, 0-90% RH
  % dMass: 0.1423%
RH 56.98%, 0-90% RH
  % dMass: 0.153%
RH 60.24%, 0-90% RH
  % dMass: 0.1646%
RH 63.9%, 0-90% RH
  % dMass: 0.1841%
RH 66.22%, 90-0% RH
  % dMass: 0.2046%
RH 66.66%, 0-90% RH
  % dMass: 0.2028%
RH 69.18%, 90-0% RH
  % dMass: 0.234%
RH 69.48%, 0-90% RH
  % dMass: 0.2251%
RH 72.34%, 90-0% RH
  % dMass: 0.3194%
RH 72.76%, 0-90% RH
  % dMass: 0.2562%
RH 75.26%, 90-0% RH
  % dMass: 0.3629%
RH 75.68%, 0-90% RH
  % dMass: 0.2936%
RH 77.96%, 90-0% RH
  % dMass: 0.4074%
RH 78.42%, 0-90% RH
  % dMass: 0.3371%
RH 80.84%, 90-0% RH
  % dMass: 0.4706%
RH 81.9%, 0-90% RH
  % dMass: 0.4163%
RH 83.48%, 90-0% RH
  % dMass: 0.5569%
RH 85.3%, 0-90% RH
  % dMass: 0.6218%
RH 85.94%, 90-0% RH
  % dMass: 0.693%
RH 88.38%, 0-90% RH
  % dMass: 0.9643%
RH 88.42%, 90-0% RH
  % dMass: 0.9723%
Above 74% relative humidity (RH)
  hygroscopicity compared with Crystal Form Ib: less hygroscopic
